This note sets out measurements from publication PMC6408513, “A Novel Lactate Dehydrogenase Inhibitor, 1-(Phenylseleno)-4-(Trifluoromethyl) Benzene, Suppresses Tumor Growth through Apoptotic Cell Death” (Scientific Reports, 2019).

The target in assay [1] is T1, lactate dehydrogenase A (LDHA) (Homo sapiens, UniProt P00338). Put plainly: in vitro LDH activity assay by NADH fluorescence; Michaelis-Menten/Lineweaver-Burk; inhibits […]-pyruvate binding. Format: biochemical. The arrangement: purified recombinant human LDHA.
Assay [2] deals with T1, lactate dehydrogenase A (LDHA). Put plainly: […]-pyruvate radioligand binding to bead-bound LDHA, competed by unlabeled pyruvate. The arrangement: purified His tagged-LDHA.
The target is the same in assay [3]. Put plainly: in vitro LDH activity assay by NADH fluorescence. Format: biochemical. Also on record: purified recombinant human LDHA.

For `FC(F)(F)c1ccc([Se]c2ccccc2)cc1` [PSTMB, 1-(phenylseleno)-4-(trifluoromethyl)benzene], the IC50 (usually the concentration at which inhibition is half-maximal) in assay [1] was 145 nM.

Take `CC(=O)C(=O)O` [pyruvate]: the “14C-pyruvate radioligand binding to bead-bound LDHA, competed by unlabeled pyruv” value in assay [2] was “The binding of pyruvate to LDHA was determined using C^14-labeled pyruvate”.

For the molecule `c1ccc([Se]C2CCSC2)cc1` (stereo not drawn) [tetrahydro-3-(phenylseleno) thiophene], the “in vitro LDH activity assay by NADH fluorescence” value in assay [3] was “tetrahydro-3-(phenylseleno) thiophene, and 1-methoxy-4-[(phenylmethyl)seleno]benzene had inhibitory effects on LDHA activity”.
